Test results published in BindingDB's records for doi:10.1002/cbic.201600673 (Université de Nantes, 2017).

Assays:
Assay in all cases: Fluorescence Polarization Assay
[1] = target: Galectin-1 [C3S] (Human, UniProt P09382, C3S)
[2] = target: Galectin-7 (Homo sapiens, UniProt P47929)
[3] = target: Galectin-3 (Homo sapiens, UniProt P17931)
Chain of Galectin-3 (P17931 whole entry): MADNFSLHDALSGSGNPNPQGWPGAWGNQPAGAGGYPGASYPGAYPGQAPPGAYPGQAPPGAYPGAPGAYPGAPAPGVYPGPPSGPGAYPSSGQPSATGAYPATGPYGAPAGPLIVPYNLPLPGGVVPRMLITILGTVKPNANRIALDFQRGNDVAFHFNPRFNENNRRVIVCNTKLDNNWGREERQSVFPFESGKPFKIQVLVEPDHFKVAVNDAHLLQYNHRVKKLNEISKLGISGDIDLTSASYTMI

Chain of Galectin-1 [C3S] (P09382 2-135 C3S limits assumed): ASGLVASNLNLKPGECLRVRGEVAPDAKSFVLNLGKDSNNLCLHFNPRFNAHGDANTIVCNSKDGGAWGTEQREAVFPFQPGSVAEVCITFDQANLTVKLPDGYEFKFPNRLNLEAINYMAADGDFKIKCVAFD
Chain of Galectin-7 (P47929 whole entry): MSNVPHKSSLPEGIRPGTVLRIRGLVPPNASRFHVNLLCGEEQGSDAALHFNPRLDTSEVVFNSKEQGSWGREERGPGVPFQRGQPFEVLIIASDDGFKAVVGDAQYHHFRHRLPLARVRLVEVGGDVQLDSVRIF

Row | SMILES | Kd ([1]; 4 °C) | Kd ([1]; 25 °C) | Kd ([2]; 4 °C) | Kd ([2]; 25 °C) | Kd ([3]; 4 °C) | Kd ([3]; 25 °C)
1 | COc1cccc(C(=O)NC2C(O)[C@H](O[C@@H]3OC(CO)[C@H](O)C(OCc4ccc5ccccc5c4)C3O)C(CO)O[C@H]2OCCNC(=O)CCCCCN2C(=O)C=CC2=O)c1 (stereo partly drawn) [2-[6-Maleimide)caproyl]ethyl [3-O-(2-naphthyl)methyl-β-D-galactopyranosyl]-(1-4)-2-deoxy-2-(3-methoxybenzamido)-β-D-glucopyranoside (13)] | 16 µM | 43 µM | 21 µM | 129 µM | 0.014 µM | 0.082 µM
2 | COc1cccc(COC2C(O)[C@H](O[C@@H]3C(CO)O[C@@H](N=[N+]=[N-])C(NC(=O)c4cccc(OC)c4)C3O)OC(CO)[C@@H]2O)c1 (stereo partly drawn) [4-O-[3-O-(3-methoxybenzyl)-β-D-galactopyranosyl)]-1-azido-1,2-dideoxy-2-(3-methoxybenzamido)-β-D-glucopyranose (1)] | 23 µM | – | 86 µM | – | 0.66 µM | 3.27 µM
3 | OCC1O[C@@H](S[C@@H]2OC(CO)[C@H](O)C(n3cc(-c4cccc(F)c4)nn3)C2O)C(O)C(n2cc(-c3cccc(F)c3)nn2)[C@H]1O (stereo not given in full) [TD139] | – | – | 32 µM | – | – | –
4 | COc1cccc(C(=O)CC2C(O)[C@H](O[C@@H]3OC(CO)[C@H](O)C(OCc4ccc5ccccc5c4)C3O)C(CO)O[C@H]2OCCN=[N+]=[N-])c1 (stereo partly drawn) [[3-O-(2-naphthyl)methyl-β-D-galactopyranosyl]-(1-4)-2-deoxy-2-(3-methoxybenzamido)-β-D-glucopyranoside (11)] | 27 µM | – | 90 µM | – | 0.59 µM | 2.99 µM
